From patent US11091472B2, “PI-kinase inhibitors with anti-infective activity” (The Board of Trustees of the Leland Stanford Junior …, priority 2016, dated 2021)

What was measured:
PI3K p110g = PI3K p110g (Homo sapiens (Human), UniProt P48736); assay: PI3K p110g kinase assay; format: biochemical; settings: kinase activity
PI4KIIIB = PI4KIIIB (Bos taurus (Bovine), UniProt O02810); assay: PI4KIIIβ kinase assay (immunoprecipitated HA-tagged enzyme, [γ-32P]-ATP); format: biochemical; settings: kinase activity
Chain of PI4KIIIB (O02810 whole entry): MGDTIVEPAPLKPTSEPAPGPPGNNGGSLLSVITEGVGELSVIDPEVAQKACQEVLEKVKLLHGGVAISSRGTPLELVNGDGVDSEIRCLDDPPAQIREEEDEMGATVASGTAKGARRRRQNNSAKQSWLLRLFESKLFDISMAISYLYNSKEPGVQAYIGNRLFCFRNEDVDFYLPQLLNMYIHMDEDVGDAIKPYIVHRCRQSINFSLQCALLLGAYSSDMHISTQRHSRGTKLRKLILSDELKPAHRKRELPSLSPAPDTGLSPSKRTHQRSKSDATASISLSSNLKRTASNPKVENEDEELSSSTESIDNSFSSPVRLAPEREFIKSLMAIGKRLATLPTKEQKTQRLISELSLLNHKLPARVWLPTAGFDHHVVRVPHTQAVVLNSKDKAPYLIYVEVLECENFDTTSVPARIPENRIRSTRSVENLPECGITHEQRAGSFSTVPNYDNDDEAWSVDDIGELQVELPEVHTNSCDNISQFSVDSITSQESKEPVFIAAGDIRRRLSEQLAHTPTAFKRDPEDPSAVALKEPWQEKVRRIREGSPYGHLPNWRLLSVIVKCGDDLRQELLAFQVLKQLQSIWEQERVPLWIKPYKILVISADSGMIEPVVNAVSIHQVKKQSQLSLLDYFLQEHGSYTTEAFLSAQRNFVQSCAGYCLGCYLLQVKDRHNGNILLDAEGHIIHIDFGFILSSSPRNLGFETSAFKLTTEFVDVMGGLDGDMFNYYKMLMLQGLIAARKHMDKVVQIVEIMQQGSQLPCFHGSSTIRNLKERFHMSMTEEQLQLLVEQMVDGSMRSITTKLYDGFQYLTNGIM

PI3KC2B = PI3KC2B (Homo sapiens (Human), UniProt O00750); assay: PI3KC2B kinase assay; format: biochemical; settings: kinase activity
Chain of PI3KC2B (O00750 whole entry): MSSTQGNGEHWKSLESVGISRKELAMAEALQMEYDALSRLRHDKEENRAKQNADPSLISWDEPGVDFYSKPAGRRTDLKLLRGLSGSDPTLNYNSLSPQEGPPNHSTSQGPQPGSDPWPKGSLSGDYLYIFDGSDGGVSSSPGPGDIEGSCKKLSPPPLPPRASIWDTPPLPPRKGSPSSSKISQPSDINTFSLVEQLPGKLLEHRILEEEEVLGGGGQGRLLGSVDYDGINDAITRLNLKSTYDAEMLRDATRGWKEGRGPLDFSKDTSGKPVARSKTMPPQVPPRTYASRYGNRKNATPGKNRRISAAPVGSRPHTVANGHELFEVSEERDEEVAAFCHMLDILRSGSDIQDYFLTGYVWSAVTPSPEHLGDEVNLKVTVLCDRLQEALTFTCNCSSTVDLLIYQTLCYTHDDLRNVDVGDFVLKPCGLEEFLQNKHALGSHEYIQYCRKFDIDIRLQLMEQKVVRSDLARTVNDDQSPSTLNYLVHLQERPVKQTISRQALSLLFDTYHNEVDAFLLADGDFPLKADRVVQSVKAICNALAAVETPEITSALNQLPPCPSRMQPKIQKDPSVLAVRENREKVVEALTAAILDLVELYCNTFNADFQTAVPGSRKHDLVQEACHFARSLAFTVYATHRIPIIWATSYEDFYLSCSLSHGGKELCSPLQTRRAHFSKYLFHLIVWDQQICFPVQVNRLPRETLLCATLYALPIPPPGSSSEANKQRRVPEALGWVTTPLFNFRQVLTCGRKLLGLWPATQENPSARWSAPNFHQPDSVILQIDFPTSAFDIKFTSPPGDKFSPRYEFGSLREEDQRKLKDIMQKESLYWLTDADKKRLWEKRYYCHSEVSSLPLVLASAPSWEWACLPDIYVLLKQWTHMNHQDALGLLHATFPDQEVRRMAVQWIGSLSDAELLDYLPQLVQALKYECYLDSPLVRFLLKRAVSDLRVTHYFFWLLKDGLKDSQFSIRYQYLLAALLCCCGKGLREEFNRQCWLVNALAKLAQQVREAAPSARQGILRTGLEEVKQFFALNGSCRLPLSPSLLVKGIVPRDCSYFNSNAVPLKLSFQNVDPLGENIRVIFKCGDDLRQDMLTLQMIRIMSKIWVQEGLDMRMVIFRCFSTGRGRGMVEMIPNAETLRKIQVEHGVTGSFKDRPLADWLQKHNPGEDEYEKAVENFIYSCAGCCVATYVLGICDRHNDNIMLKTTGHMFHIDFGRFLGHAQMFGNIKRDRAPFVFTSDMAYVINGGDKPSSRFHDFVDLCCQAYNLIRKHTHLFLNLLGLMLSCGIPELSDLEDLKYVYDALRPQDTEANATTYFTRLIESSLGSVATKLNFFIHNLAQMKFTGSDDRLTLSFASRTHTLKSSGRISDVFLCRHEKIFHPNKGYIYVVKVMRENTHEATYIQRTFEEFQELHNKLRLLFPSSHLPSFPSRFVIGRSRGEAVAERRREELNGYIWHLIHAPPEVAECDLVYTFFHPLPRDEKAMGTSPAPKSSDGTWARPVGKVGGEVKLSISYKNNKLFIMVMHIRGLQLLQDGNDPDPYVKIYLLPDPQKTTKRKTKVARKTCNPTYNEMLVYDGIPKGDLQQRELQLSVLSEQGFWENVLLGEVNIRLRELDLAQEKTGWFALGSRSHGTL
Experimental: PI-kinase assay: Compounds are tested in C.1.1. PI kinase assays as described by Shokat et al., “A membrane capture assay for lipid kinase activity.” Nat. Protoc. 2007; 2(10):2459-66.
(§1) Selected compounds of Table 1 and 2 were prepared and tested for inhibition activity in a variety of kinase assays.

Cell toxicity (CC50) = format: cell-based; settings: human, HuH-7 cells
PI3KC2G = PI3KC2G (Homo sapiens (Human), UniProt O75747); assay: PI3KC2G kinase assay; format: biochemical; settings: kinase activity
Chain of PI3KC2G (O75747 whole entry): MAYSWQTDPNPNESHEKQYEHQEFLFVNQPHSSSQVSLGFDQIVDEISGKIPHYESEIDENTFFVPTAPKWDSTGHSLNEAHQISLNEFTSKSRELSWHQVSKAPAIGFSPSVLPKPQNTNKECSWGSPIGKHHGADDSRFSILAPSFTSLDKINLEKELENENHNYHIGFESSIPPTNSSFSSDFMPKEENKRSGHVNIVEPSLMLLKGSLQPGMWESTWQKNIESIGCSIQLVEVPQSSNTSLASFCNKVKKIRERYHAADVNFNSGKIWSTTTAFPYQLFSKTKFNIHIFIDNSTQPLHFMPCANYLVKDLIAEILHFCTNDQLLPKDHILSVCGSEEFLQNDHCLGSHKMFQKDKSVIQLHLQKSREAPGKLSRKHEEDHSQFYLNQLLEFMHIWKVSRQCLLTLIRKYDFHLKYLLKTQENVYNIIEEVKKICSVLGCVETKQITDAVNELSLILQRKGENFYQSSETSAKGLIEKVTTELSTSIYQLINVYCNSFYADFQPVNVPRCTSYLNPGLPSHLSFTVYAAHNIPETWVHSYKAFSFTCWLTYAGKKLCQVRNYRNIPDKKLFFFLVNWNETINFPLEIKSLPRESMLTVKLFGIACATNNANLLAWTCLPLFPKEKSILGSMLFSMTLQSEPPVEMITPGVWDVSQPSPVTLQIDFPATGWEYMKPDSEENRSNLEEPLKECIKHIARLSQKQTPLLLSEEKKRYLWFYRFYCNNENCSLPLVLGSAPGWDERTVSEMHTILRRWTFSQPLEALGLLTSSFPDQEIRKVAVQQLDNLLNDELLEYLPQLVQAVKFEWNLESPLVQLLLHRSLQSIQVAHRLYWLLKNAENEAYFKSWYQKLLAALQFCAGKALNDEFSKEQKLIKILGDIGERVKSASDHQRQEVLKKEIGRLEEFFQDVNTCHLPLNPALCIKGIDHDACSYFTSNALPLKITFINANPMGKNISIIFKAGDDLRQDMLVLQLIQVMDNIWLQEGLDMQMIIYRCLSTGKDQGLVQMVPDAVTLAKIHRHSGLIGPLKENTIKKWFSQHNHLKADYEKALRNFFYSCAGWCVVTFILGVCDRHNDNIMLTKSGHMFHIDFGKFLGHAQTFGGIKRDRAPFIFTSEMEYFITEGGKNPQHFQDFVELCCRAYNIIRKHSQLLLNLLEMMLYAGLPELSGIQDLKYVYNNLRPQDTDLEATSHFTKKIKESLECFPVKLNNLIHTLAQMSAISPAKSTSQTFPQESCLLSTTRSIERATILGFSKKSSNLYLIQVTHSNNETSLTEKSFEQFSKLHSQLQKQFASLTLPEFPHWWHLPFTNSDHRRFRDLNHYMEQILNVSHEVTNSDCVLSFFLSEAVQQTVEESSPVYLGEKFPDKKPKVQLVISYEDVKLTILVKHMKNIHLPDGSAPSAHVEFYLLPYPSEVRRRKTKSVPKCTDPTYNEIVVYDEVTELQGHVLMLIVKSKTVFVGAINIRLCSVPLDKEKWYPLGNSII
Experimental: PI-kinase assay: Compounds are tested in C.1.1. PI kinase assays as described by Shokat et al., “A membrane capture assay for lipid kinase activity.” Nat. Protoc.
as §1

HCV2a = assay: microbe, parasite or virus in culture; format: cell-based, HCV; settings: Hepatitis C virus, Huh7.5, read-out: HCV2a EC50
PI3K p110a = PI3K p110a (Homo sapiens (Human), UniProt P42336); assay: PI3K p110a kinase assay; format: biochemical; settings: kinase activity
HRV = assay: Rhinovirus antiviral assay; format: cell-based; settings: Human rhinovirus sp.
PI4KIIIA = PI4KIIIA (Homo sapiens (Human), UniProt P42356); assay: PI4KIIIα kinase assay (immunoprecipitated HA-tagged enzyme, [γ-32P]-ATP); format: biochemical; settings: kinase activity
EV71 = EV71 antiviral assay; format: cell-based; settings: Enterovirus A, Table 5

Chain of PI3K p110g (P48736 whole entry): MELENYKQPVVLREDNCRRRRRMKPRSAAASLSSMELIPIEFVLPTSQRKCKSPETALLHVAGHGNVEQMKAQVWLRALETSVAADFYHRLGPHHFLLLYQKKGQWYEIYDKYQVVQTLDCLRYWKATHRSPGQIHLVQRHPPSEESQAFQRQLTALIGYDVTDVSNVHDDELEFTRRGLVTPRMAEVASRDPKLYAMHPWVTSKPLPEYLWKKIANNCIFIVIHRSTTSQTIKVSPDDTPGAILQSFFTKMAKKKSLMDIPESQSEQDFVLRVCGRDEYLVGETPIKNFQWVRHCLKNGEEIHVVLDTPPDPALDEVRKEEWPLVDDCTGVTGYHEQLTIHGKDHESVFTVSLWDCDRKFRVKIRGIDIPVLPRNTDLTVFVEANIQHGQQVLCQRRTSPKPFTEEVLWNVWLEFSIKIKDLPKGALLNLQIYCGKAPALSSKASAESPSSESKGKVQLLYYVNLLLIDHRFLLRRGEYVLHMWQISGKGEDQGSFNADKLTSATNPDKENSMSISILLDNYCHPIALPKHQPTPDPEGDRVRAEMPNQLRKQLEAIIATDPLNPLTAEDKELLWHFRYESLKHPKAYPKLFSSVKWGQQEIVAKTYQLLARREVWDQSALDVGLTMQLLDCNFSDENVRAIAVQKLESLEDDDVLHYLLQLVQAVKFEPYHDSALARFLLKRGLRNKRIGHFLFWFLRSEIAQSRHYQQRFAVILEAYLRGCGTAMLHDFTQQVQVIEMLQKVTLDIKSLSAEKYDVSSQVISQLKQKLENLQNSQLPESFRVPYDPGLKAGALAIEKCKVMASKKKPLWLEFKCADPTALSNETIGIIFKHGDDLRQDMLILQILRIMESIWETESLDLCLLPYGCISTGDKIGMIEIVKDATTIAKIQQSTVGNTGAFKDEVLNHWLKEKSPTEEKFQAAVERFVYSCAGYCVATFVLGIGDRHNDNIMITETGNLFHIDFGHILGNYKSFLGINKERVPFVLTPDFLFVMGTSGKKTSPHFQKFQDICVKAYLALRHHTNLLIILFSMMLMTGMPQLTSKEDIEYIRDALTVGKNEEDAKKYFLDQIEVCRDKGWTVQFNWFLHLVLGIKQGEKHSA

COc1ccc(-c2sc(NC(=O)CC3CCCC3)nc2C)cc1S(=O)(=O)Nc1ccc(O)cc1 [Compound S-1]
IC50 (PI3K p110g): > 10000 nM
IC50 (PI4KIIIB): < 100 nM
IC50 (PI3KC2B): > 10000 nM
CC50 (Cell toxicity (CC50)): > 10000 nM
IC50 (PI3KC2G): < 100 nM
EC50 (HCV2a): 1 to 100 nM
IC50 (PI3K p110a): > 10000 nM

COc1ccc(-c2sc(NCC3CCCCC3)nc2C)cc1S(=O)(=O)Nc1ccccc1F [Compound S-29]
CC50 (Cell toxicity (CC50)): > 10000 nM

COc1ccc(NS(=O)(=O)c2cc(-c3sc(NC4CCCCC4)nc3C)ccc2OC)c(C)c1 [Compound S-66]
EC50 (HRV): < 1 nM
CC50 (Cell toxicity (CC50)): > 10000 nM
EC50 (HCV2a): 1000 to 10000 nM

COc1ccc(NS(=O)(=O)c2cc(-c3sc(NC(=O)CC4CCCCC4)nc3C)ccc2OC)c(C)c1 [Compound S-85]
CC50 (Cell toxicity (CC50)): > 10000 nM

COc1ccc(NS(=O)(=O)c2cc(-c3sc(NC4CCCCCC4)nc3C)ccc2OC)c(C)c1 [Compound S-89]
CC50 (Cell toxicity (CC50)): > 10000 nM

COc1ccc(-c2sc(NC(=O)CC3CCCC3)nc2C)cc1S(=O)(=O)Nc1ccc(C)nc1 [Compound S-100]
IC50 (PI3K p110g): > 10000 nM
IC50 (PI4KIIIB): 100 to 1000 nM
IC50 (PI4KIIIA): > 10000 nM

COc1ccc(-c2sc(NC3CCCCC3)nc2C)cc1S(=O)(=O)Nc1ccc(O)cc1C [Compound S-106]
CC50 (Cell toxicity (CC50)): > 10000 nM

COc1ccc(-c2sc(NCC3CCCCC3)nc2C)cc1S(=O)(=O)NC1CCCNC1 (stereo not shown) [Compound S-115]
CC50 (Cell toxicity (CC50)): > 10000 nM
EC50 (HCV2a): 100 to 1000 nM

COc1ccc(-c2sc(NCC3CCCCC3)nc2C)cc1S(=O)(=O)NC1CC1 [Compound S-127]
IC50 (PI3K p110g): > 10000 nM
IC50 (PI4KIIIB): 100 to 1000 nM
IC50 (PI4KIIIA): > 10000 nM
IC50 (PI3KC2G): > 10000 nM

COc1ccc(-c2sc(NCC3CCCCC3)nc2C)cc1S(=O)(=O)NCC1CCCCC1 [Compound S-128]
IC50 (PI3K p110g): > 10000 nM
IC50 (PI4KIIIB): 100 to 1000 nM
IC50 (PI4KIIIA): > 10000 nM
IC50 (PI3KC2G): > 10000 nM

COc1ccc(-c2sc(NC3CCCCC3)nc2C)cc1S(=O)(=O)NC1CCCC1 [Compound S-129]
IC50 (PI3K p110g): > 10000 nM
IC50 (PI4KIIIB): 100 to 1000 nM
IC50 (PI4KIIIA): > 10000 nM
IC50 (PI3KC2G): > 10000 nM

COc1ccc(-c2sc(NC3CCCCC3)nc2C)cc1S(=O)(=O)NC1CCCCCC1 [Compound S-131]
IC50 (PI4KIIIB): 100 to 1000 nM
IC50 (PI4KIIIA): > 10000 nM
IC50 (PI3KC2G): > 10000 nM

COc1ccc(-c2sc(NC(=O)[C@@H](C)C3CCCCC3)nc2C)cc1S(=O)(=O)Nc1ccc(O)cc1 [Compound S-138]
CC50 (Cell toxicity (CC50)): > 10000 nM

COc1ccc(-c2sc(N[C@H](C)CC3CCCCC3)nc2C)cc1S(=O)(=O)NC1CCNCC1 [Compound S-145]
IC50 (PI3K p110g): > 10000 nM
IC50 (PI4KIIIB): < 100 nM
IC50 (PI4KIIIA): 100 to 1000 nM
IC50 (PI3K p110a): > 10000 nM

COc1ccc(-c2sc(N[C@H](C)C3CCCCC3)nc2C)cc1S(=O)(=O)NC1CCNCC1 [Compound S-147]
IC50 (PI3K p110g): > 10000 nM
IC50 (PI4KIIIB): < 100 nM
IC50 (PI4KIIIA): 100 to 1000 nM
IC50 (PI3K p110a): > 10000 nM

COc1ccc(-c2sc(N[C@H](C)C3CCCCC3)nc2C)cc1S(=O)(=O)NC1CCCNC1 (stereo partly shown) [Compound S-148]
IC50 (PI3K p110g): > 10000 nM

COc1ccc(-c2sc(NC(=O)CCC3CCCC3)nc2C)cc1S(=O)(=O)NC1CCNCC1 [Compound S-160]
IC50 (PI3K p110g): > 10000 nM
IC50 (PI4KIIIB): < 100 nM
IC50 (PI3KC2B): > 10000 nM
IC50 (PI3KC2G): 100 to 1000 nM

COc1ccc(-c2sc(NC(=O)CC3CCOCC3)nc2C)cc1S(=O)(=O)Nc1cc(C)cc(O)c1 [Compound S-169]
IC50 (PI3K p110g): > 10000 nM
IC50 (PI4KIIIB): < 100 nM
IC50 (PI4KIIIA): < 100 nM
IC50 (PI3KC2G): > 10000 nM
IC50 (PI3K p110a): > 10000 nM

COc1ccc(-c2sc(NC(=O)CC3CCOCC3)nc2C)cc1S(=O)(=O)Nc1ccc(F)cc1 [Compound S-170]
IC50 (PI3K p110g): > 10000 nM
IC50 (PI4KIIIB): < 100 nM
IC50 (PI4KIIIA): < 100 nM
IC50 (PI3KC2G): > 10000 nM
IC50 (PI3K p110a): > 10000 nM

COc1ccc(-c2sc(N[C@H](C)C3CCCCC3)nc2C)cc1S(=O)(=O)N[C@H]1CC[C@H](O)CC1 [Compound S-193]
IC50 (PI4KIIIB): < 100 nM
IC50 (PI3KC2B): > 10000 nM
IC50 (PI3KC2G): > 10000 nM

COc1ccc(-c2sc(NCCC3CCCCC3)nc2C)cc1S(=O)(=O)NC1CCC(O)C1 (stereo not shown) [Compound S-214]
IC50 (PI3K p110g): > 10000 nM

COc1ccc(-c2sc(NC(C)C)nc2C)cc1S(=O)(=O)N[C@H]1CC[C@H](O)CC1 [Compound S-215]
IC50 (PI3K p110g): > 10000 nM
IC50 (PI4KIIIB): < 100 nM
IC50 (PI3KC2B): > 10000 nM
IC50 (PI4KIIIA): 1000 to 10000 nM
IC50 (PI3KC2G): 1000 to 10000 nM

COc1ccc(-c2sc(NC(C)(C)C)nc2C)cc1S(=O)(=O)N[C@H]1CC[C@H](O)CC1 [Compound S-216]
IC50 (PI3K p110g): > 10000 nM
IC50 (PI4KIIIB): < 100 nM
IC50 (PI3KC2B): > 10000 nM
IC50 (PI3KC2G): 1000 to 10000 nM

COc1ccc(-c2sc(NC(=O)CC3CCOCC3)nc2C)cc1S(=O)(=O)Nc1ccccc1C [Compound S-228]
CC50 (Cell toxicity (CC50)): > 10000 nM

COc1ccc(-c2sc(NC(=O)CC3CCOCC3)nc2C)cc1S(=O)(=O)Nc1ccc(O)cc1C [Compound S-231]
IC50 (PI3K p110g): > 10000 nM
IC50 (PI4KIIIB): < 100 nM
IC50 (PI3KC2B): > 10000 nM
IC50 (PI3KC2G): 100 to 1000 nM

COc1ncc(-c2sc(NC(=O)CC3CCOCC3)nc2C)cc1S(=O)(=O)Nc1cccc(O)c1 [Compound S-259]
IC50 (PI4KIIIB): < 100 nM
IC50 (PI4KIIIA): < 100 nM
IC50 (PI3KC2G): 1000 to 10000 nM
IC50 (PI3K p110a): 1000 to 10000 nM

COc1ncc(-c2sc(NC(=O)CC3CCOCC3)nc2C)cc1S(=O)(=O)Nc1ccc(F)cc1F [Compound S-260]
IC50 (PI3K p110g): > 10000 nM
IC50 (PI4KIIIB): < 100 nM
IC50 (PI4KIIIA): < 100 nM
CC50 (Cell toxicity (CC50)): > 10000 nM
IC50 (PI3KC2G): > 10000 nM
EC50 (HCV2a): 100 to 1000 nM
IC50 (PI3K p110a): > 10000 nM

COc1ncc(-c2sc(NC(=O)CC3CCOCC3)nc2C)cc1S(=O)(=O)Nc1ccc(O)cc1 [Compound S-261]
IC50 (PI4KIIIB): < 100 nM
IC50 (PI4KIIIA): < 100 nM
CC50 (Cell toxicity (CC50)): > 10000 nM
IC50 (PI3KC2G): 100 to 1000 nM
EC50 (HCV2a): 1 to 100 nM
IC50 (PI3K p110a): 100 to 1000 nM

COc1ncc(-c2sc(NC(=O)CC3CCOCC3)nc2C)cc1S(=O)(=O)N[C@H]1CC[C@@H](O)CC1 [Compound S-262]
IC50 (PI4KIIIB): < 100 nM
IC50 (PI4KIIIA): < 100 nM
IC50 (PI3KC2G): 100 to 1000 nM
IC50 (PI3K p110a): > 10000 nM

COc1ncc(-c2sc(NC(=O)CC3CCOCC3)nc2C)cc1S(=O)(=O)NC1CCCC(O)C1 (stereo not shown) [Compound S-263]
CC50 (Cell toxicity (CC50)): > 10000 nM
EC50 (HCV2a): 1 to 100 nM

COc1ncc(-c2sc(NC(=O)CC3CCOCC3)nc2C)cc1S(=O)(=O)Nc1cccc(C(=O)O)c1 [Compound S-265]
IC50 (PI3K p110g): > 10000 nM
IC50 (PI4KIIIB): < 100 nM
IC50 (PI4KIIIA): < 100 nM
IC50 (PI3KC2G): 1000 to 10000 nM
IC50 (PI3K p110a): > 10000 nM

COc1ncc(-c2sc(NC(C)C3CCOCC3)nc2C)cc1S(=O)(=O)Nc1ccc(F)cc1F (stereo not shown) [Compound S-336]
EC50 (HRV; Table 5): 1 to 100 nM
EC50 (EV71): 1 to 100 nM

COc1ncc(-c2sc(NC(C)C3CCOCC3)nc2C)cc1S(=O)(=O)Nc1ccc(F)cc1Cl (stereo not shown) [Compound S-337]
EC50 (HRV; Table 5): 100 to 1000 nM
EC50 (EV71): 1 to 100 nM

COc1ncc(-c2sc(NC(C)C3CCOCC3)nc2C)cc1S(=O)(=O)Nc1ccc(F)cc1C (stereo not shown) [Compound S-338]
EC50 (HRV; Table 5): 1 to 100 nM
EC50 (EV71): 1 to 100 nM

COc1ncc(-c2sc(NC(C)C3CCOCC3)nc2C)cc1S(=O)(=O)Nc1ccccc1F (stereo not shown) [Compound S-339]
EC50 (HRV; Table 5): 1 to 100 nM
EC50 (EV71): 1 to 100 nM

COc1ncc(-c2sc(NC(C)C3CCOCC3)nc2C)cc1S(=O)(=O)Nc1ccc(O)cc1C (stereo not shown) [Compound S-340]
EC50 (HRV; Table 5): 1 to 100 nM
EC50 (EV71): 1 to 100 nM

COc1ncc(-c2sc(NC(C)C3CCOCC3)nc2C)cc1S(=O)(=O)Nc1ccccc1Cl (stereo not shown) [Compound S-341]
EC50 (HRV; Table 5): 1 to 100 nM
EC50 (EV71): 1 to 100 nM

COc1ncc(-c2sc(NC(C)C3CCOCC3)nc2C)cc1S(=O)(=O)Nc1ccc(O)cc1Cl (stereo not shown) [Compound S-375]
EC50 (HRV; Table 5): 1 to 100 nM
EC50 (EV71): 1 to 100 nM
